{"source": "patent US6441036B1", "about": "(priority 1998, dated 2002)", "key": {"Salmonella typhimurium": {"test_system": "Salmonella typhimurium", "assay": "Test for mutagenic activity in Salmonella typhimurium strains", "assay_type": "cell-based", "conditions": "3-1000 mg/plate (TTA), 2-5000 mg/plate (TSA)", "excerpt": "(§1) Tests for mutagenic activity have been performed by Covance Laboratories Limited, England. […] Furthermore, TTA was not mutagenic when tested in mouse lymphoma cells […] L5178Y."}, "Escherichia coli": {"test_system": "Escherichia coli", "assay": "Test for mutagenic activity in Escherichia coli strains", "assay_type": "cell-based", "conditions": "3-1000 mg/plate (TTA), 2-5000 mg/plate (TSA)", "excerpt": "as §1"}, "[1]": {"test_system": "mouse lymphoma cells, L5178Y", "assay": "Mutagenicity test in mouse lymphoma cells L5178Y", "assay_type": "cell-based", "conditions": "concentration 2.5-50 mg/ml", "excerpt": "as §1"}, "[2]": {"assay": "Lipid lowering effect in normal Wistar rats (Example 4)", "assay_type": "in vivo", "conditions": "gavage once daily for 7 days; dose mg/day/kg body weight: TSA 15, EPA 1500, TTA 150", "experimental": "Phospholipids were measured by the enzymatic method of bioMérieux, Marcy-l{grave over ( )}Etoile, France, Triacylglycerol by the Technicon Method no. SA4-0324L90, USA and Cholesterol by the Technicon Method no. SA4-0305L90, USA.\nMale Wistar rats, weighing 180-200 g at the start of the experiment, were housed individually in metal wire cages in a room maintained at 12 h light-dark cycles and a constant temperature of 20±3° C. The animals were acclimatised for one week under these conditions before the start of the experiments.\nTTA, TSA and eicosapentaenoic acid (EPA) were suspended in 0.5% (w/v) carboxymethyl cellulose (CMC). Six animals were used for each treatment, and a 0.5% CMC solution was administrated to the rats as control. After administration of the test compound, the rats were fasted for 12 hours and anaesthetised with haloethan. The EPA and the fatty acid derivatives were administered by gastric intubation (gavage) once daily for 7 days. Blood samples were collected by cardiac puncture, and lipid concentrations in plasma were determined as outlined in the method section."}, "[3]": {"test_system": "cultured Chinese hamster ovary cells", "assay": "Chromosomal aberrations in cultured Chinese hamster ovary cells", "conditions": "doses tested 12-140 mg/ml"}, "[4]": {"test_system": "mitochondrial β-oxidation", "assay": "Effect of fatty acid analogues on mitochondrial β-oxidation in rat liver (Example 18)", "assay_type": "in vivo", "conditions": "[1-14C]-palmitoyl-L-carnitine as substrate", "experimental": "Freshly isolated livers from individual old Zucker rats, were homogenised in ice-cold sucrose buffer (0.25 M sucrose, 10 mM HEPES (pH 7.4) and 2 mM EDTA). Post-nuclear and mitochondrial fractions were prepared using preparative differential centrifugation according to DeDuve et al. (De Duve, C., et al., Biochem. J., 60, 604-617 1955.) Modifications, purity and yield were as described earlier (Garras, A., et al., Biochim. Biophys. Acta, 1255, 154-160 1995.). Acid soluble products were measured in post-nuclear and mitochondrial enriched fractions, using [1-^14C]-palmitoyl-CoA and [1-^14C]-palmitoyl-L-carnitine (Radio-chemical Centre, Amersham, England) as substrates as described earlier (Willumsen, N., et al., J. Lipid Res., 34, 13-22 1993. Carnitine palmitoyltransferase-I and -II activities were measured in the post-nuclear and mitochondrial fractions essentially as described by Bremer (Bremer, J., Biochim. Biophys. Acta, 665, 628-631 1981.) and 3-hydroxy-3-methylglutharyl-CoA synthase was measured according to Clinkenbeard et al. (Clinkenbeard, K. D., et al., J. Biol. Chem, 250, 3108-3116 1975.) in the mitochondrial fractions.\nObese Zucker (fa/fa) rats were given a standard chow either with (n=6) or without (n=5) 0.15% TTA. Following 21 days of treatment, rats were killed by cervical dislocation and the livers were removed. […] Values are expressed as the mean±S.D."}, "[5]": {"assay": "Hepatic levels of triacylglycerol (Example 17)", "assay_type": "in vivo, Wistar rats", "conditions": "fed 6 days, no prefeeding; TTA 150 mg/kg/day, TTP 300 mg/kg/day", "procedure": "Male Wistar rats had free access to water and rat maintenance chow. They were fed palmitic acid or fatty acid analogues suspended in 0.5% CMC for 6 days. In some experiments TTA or TTP were fed for 3 days before feeding both for 6 days. At the end of the experiment the rats were fasted overnight, killed, the liver removed and homogenized. Triacylglycerol was measured in the homogenate."}}, "data": [{"smiles": "CCCCCCCCCCCCCC[Se]CC(=O)O", "note": "[TSA, Tetradecylselenioacetic acid]", "values": [{"measurement": "Induction of mutations", "setting": "Salmonella typhimurium", "result": "did not induce mutations"}, {"measurement": "Induction of mutations", "setting": "Escherichia coli", "result": "did not induce mutations"}, {"measurement": "Mutagenicity", "setting": "[1]", "result": "not to be mutagenic"}, {"measurement": "Plasma lipids: cholesterol", "setting": "[2]", "result": "20 % reduction of control"}, {"measurement": "Plasma lipids: triglycerides", "setting": "[2]", "result": "25 % reduction of control"}, {"measurement": "Chromosomal aberrations", "setting": "[3]", "result": "no aberrations were induced"}]}, {"smiles": "CCCCCCCCCCCCCCCC(=O)O", "note": "[Palm, palmitic acid]", "values": [{"measurement": "Mitochondrial β-oxidation activity", "setting": "[4]", "result": "0.47 ± 0.06", "unit": "nmol/min/mg protein"}]}, {"smiles": "CCCCCCCCCCCCCCSCCC(=O)O", "note": "[reference compound]", "values": [{"measurement": "Hepatic TG (triacylglycerol)", "setting": "[5]", "result": "95.4 ± 14.7", "unit": "µmol/g"}]}, {"smiles": "CC/C=C\\C/C=C\\C/C=C\\C/C=C\\C/C=C\\CCCC(=O)O", "note": "[EPA, eicosapentaenoic acid, reference compound]", "values": [{"measurement": "Plasma lipids: cholesterol", "setting": "[2]", "result": "18 % reduction of control"}, {"measurement": "Plasma lipids: triglycerides", "setting": "[2]", "result": "20 % reduction of control"}]}]}
